Test results from patent publication US20240139183A1, “COMPOUND FOR SUPPRESSING NONSENSE-MEDIATED MRNA DECAY” (RiboTech Co., Ltd., priority 2021, published 2024).

Legend:
[1] = tested on: NMD (HeLa cell line constitutively expressing the NMD-target mRNA); experiment: NMD inhibitory effect in HeLa reporter cell line: RLuc mRNA (real-time PCR) and protein (dual luciferase assay); assay type: cell-based; settings: 5 μM, 12 hours, FIG. 4; for amount of RLuc mRNA: real-time PCR
Source text: In Example 1, a beta-globin normal gene or the gene including a premature termination codon (PTC) found in genetic diseases was inserted into the downstream of a chemiluminescence gene, Renilla luciferase (RLuc). Normal gene-inserted mRNA was not targeted by NMD, whereas when a gene having PTC was inserted, the mRNA became a NMD target, and as a result, mRNA was quickly broken down and the expression level of RLuc was reduced.
Accordingly, a HeLa cell line constitutively expressing the NMD-target mRNA was prepared, and simultaneously, the cell line was designed to constitutively express a firefly luciferase (FLuc) gene, which was not a target of NMD, and a total of three cell lines NMD20, NMD4, and NMD5 with the same composition were obtained. In order to confirm whether the HeLa cell line prepared above was suitable for measuring NMD efficiency, the following two experiments were performed.
The NMD inhibitory effect of Compounds 1 to 3 was confirmed using the HeLa cell line prepared in Example 1. After treating the cells with Compounds 1 to 3 at 5 μM for 12 hours, respectively, total RNA and protein were purified from the cells, respectively. Then, the amounts of RNA and protein were quantified respectively through real-time PCR and dual luciferase assay methods. The results were illustrated in FIG. 4.

UPF1 = experiment: Western blotting of UPF1 phosphorylation in treated cells; assay type: cell-based; settings: 5 μM, 12 hours, FIG. 5
Protocol: Phosphorylation of UPF1 was known to be one of the most important factors in NMD. In Example 3.1, the effect of the three types of compounds of the present invention on phosphorylation of UPF1 was examined. The cells were treated with each compound at 5 μM for 12 hours, and then total proteins were purified. Then, western blotting was performed using each antibody capable of recognizing Upf1 or Upf1 phosphorylated at a specific site.

[2] = biological target: T1, binding between UPF1 and UPF2 (Homo sapiens, UniProt Q92900); experiment: FLAG-UPF1 immunoprecipitation / western blotting for UPF1-UPF2 binding; assay type: cell-based; settings: 5 μM, 1 hour; FLAG-UPF1 overexpressed; immunoprecipitation with FLAG antibody; FIG. 6
T1 construct: expressed in transfected cells
T1 sequence (Q92900 1-1129): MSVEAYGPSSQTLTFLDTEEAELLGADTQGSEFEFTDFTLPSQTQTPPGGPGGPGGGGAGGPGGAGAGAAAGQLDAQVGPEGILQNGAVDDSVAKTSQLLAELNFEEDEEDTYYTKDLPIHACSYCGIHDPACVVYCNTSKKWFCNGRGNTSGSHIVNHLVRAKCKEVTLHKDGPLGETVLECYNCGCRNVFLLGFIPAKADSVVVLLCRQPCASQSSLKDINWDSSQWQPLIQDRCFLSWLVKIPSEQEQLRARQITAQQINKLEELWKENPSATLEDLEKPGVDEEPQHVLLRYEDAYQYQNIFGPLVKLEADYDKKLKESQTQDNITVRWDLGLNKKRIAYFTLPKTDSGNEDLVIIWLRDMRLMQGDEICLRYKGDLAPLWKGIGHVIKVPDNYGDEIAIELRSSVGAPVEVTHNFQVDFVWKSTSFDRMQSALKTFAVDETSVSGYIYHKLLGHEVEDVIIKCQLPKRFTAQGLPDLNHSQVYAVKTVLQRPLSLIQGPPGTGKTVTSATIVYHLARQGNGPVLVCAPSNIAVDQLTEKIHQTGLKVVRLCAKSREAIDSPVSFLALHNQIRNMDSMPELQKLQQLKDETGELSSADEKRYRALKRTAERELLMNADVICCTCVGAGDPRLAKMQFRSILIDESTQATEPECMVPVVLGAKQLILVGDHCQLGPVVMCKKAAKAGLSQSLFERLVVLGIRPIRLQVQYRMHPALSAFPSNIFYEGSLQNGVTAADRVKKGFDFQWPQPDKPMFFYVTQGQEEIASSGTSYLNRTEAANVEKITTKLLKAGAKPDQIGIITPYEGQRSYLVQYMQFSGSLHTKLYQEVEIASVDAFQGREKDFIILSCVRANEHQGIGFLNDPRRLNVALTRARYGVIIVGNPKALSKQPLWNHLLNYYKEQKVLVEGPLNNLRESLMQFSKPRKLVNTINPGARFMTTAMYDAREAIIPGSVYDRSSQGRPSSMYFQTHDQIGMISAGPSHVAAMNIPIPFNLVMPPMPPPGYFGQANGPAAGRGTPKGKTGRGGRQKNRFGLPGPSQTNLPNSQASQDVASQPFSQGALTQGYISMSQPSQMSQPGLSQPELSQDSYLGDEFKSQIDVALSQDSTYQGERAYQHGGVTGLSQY
Protocol: In the cell line, DNA expressing FLAG-UPF1 was transiently overexpressed.
After treating the cell line with each compound at 5μM for 1 hour, a cell extract was obtained. Immunoprecipitation was performed on the cell extract obtained using a FLAG antibody.
Proteins before and after immunoprecipitation were analyzed by western blotting.

[3] = tested on: NMD steps (Upf1, Upf2, Upf3X tethered to reporter β-6bs mRNA); experiment: Tethering assay: MS2-Upf1, MS2-Upf2, MS2-Upf3 tethered to 3' UTR of reporter mRNA in HeLa cell line, real-time PCR; assay type: cell-based; settings: 5 μM, 6 hours or 12 hours, FIGS. 8 and 9
Protocol: An NMD-based search system capable of artificially reducing the amount of reporter mRNA was constructed, after artificially tethering proteins Upf1, Upf2, and Upf3X acting in each step of NMD to 3′ UTR of reporter mRNA (FIG. 7). Using this method, it was attempted to verify which step of NMD the three types of compounds acted on.
After treating the cell line with each compound at 5 μM for 6 hours or 12 hours, a cell extract was obtained. Thereafter, the relative amount of reporter mRNA was measured through real-time PCR.

[4] = tested on: dystrophin protein in cells derived from patients with DMD; experiment: Dystrophin protein by Western blotting in DMD patient-derived cell line; assay type: cell-based, human; settings: 5 μM, 12 hours, FIG. 11

Compound | protein translation of RLuc ([1]; dual luciferase assay) | effect on phosphorylation of UPF1 (UPF1) | effect on UPF1-UPF2 binding [2] | step of NMD targeted (relative amount of reporter mRNA) [3] | amount of dystrophin protein [4] | amount of RLuc mRNA [1]
COc1ncc(-c2ccc3nccc(-c4ccnnc4)c3c2)cc1NS(=O)(=O)c1ccc(F)cc1F [Compound 1, 2,4-Difluoro-N-{2-(methyloxy)-5-[4-(4-pyridazinyl)-6-quinolinyl]-3-pyridinyl}benzenesulfonamide] | increased protein translation of RLuc | did not significantly affect phosphorylation of UPF1 | significantly inhibited the UPF1-UPF2 binding | targeted a UPF1-UPF2 step | increased | 
Cn1c(=O)n(-c2ccc(C(C)(C)C#N)cc2)c2c3cc(-c4cnc5ccccc5c4)ccc3ncc21 [Compound 2, 2-methyl-2-{4-[3-methyl-2-oxo-8-(quinolin-3-yl)-2,3-dihydro-1H-imidazo[4,5-c]quinolin-1-yl]phenyl}propanenitrile] |  | significantly inhibited phosphorylation of UPF1 | did not significantly affect the UPF1-UPF2 binding | did not target the UPF1-UPF2 and UPF2-UPF3 steps |  | significantly increased the amount of mRNA
COc1cc2ncnc(-n3nc(-c4ccccn4)nc3N)c2cc1OC [Compound 3, 1-(6,7-Dimethoxy-4-quinazolinyl)-3-(2-pyridinyl)-1H-1,2,4-Triazol-5-amine] |  | did not significantly affect phosphorylation of UPF1 | did not significantly affect the UPF1-UPF2 binding | did not target the UPF1-UPF2 and UPF2-UPF3 steps |  | significantly increased the amount of mRNA
